Consider 1 compound from US12280038B2, “L-pag derivatives for treatment of sleep disordered breathing (SDB)” (priority 2016, dated 2025).

In series [1] the test system is HO-2 null mice. Put plainly: Breathing (apnea, hypoapnea) monitored by whole-body plethysmography in unsedated HO-2 null mice. It counts as in vivo. To be noted: for ED50: Mus musculus.
Method: Experiments were approved by the Institutional Animal Care and Use Committee of the University of Chicago and were performed on age-matched C57/BL6 wild type and HO-2^−/− mice. At the end of the experiment, mice were euthanized by intra-cardiac injection (0.1 mL) of euthanasia solution (Beuthanasia-D Special, Schering-Plough).
Breathing was continuously monitored under room air from 10:00 AM to 4:00 PM by whole-body plethysmography (emka Technologies, Falls Church, VA) while ambient temperatures were maintained at 25±1° C. Breathing signals were collected and stored with a data acquisition system(emka Technologies, Falls Church, VA; or PowerLab 8/35, AD Instruments, Australia), and scored off-line with commercial software (RemLogic™, Natus). Apneas were scored when there was a complete pause of respiration for the duration of 3 or more breaths. Hypopneas were scored when there was a 30% reduction in tidal volume or signal amplitude, often with an abrupt return to hyperventilation breaths at the end of the event.
Series [2] addresses T1, cystathionine-γ-lyase (CSE) (Mus musculus, UniProt Q8VCN5).
T1 construct: H2S production in an in vitro assay using mouse liver homogenates; from tissue; host or cells: mouse liver homogenate
As to the kind of experiment: In vitro assay of H2S production in mouse liver homogenates (CSE). It counts as biochemical. On the procedure:
(§1) FIGS. 10A-10B Effect of CSE inhibitor on H2S production. FIG. 10A depicts a dose-response of L-propargylglycine (L-PAG) on H2S production in an in vitro assay using mouse liver homogenates. FIG. 10B depicts the effect of L-PAG (30 μM) on H2S generation by CSE and CBS in mouse liver homogenates. Data are presented as mean±SEM from 4 independent experiments. **P<0.01; n.s., not significant.
(§2) The effect of pharmacological CSE blockade on restoration of stable breathing in HO-2 null mice was examined. L-propargylglycine (L-PAG) is an inhibitor of CSE. […] The inhibitory effects of L-PAG were selective to CSE because H2S synthesis by cystathionine-β-synthase was unaffected (FIG. 10 B).

Another series deals with T2, cystathionine-β-synthase (Mus musculus, UniProt Q91WT9).
T2 construct: H2S generation by CSE and CBS in mouse liver homogenates; from tissue; host or cells: mouse liver homogenate
T2 sequence (Q91WT9 1-561): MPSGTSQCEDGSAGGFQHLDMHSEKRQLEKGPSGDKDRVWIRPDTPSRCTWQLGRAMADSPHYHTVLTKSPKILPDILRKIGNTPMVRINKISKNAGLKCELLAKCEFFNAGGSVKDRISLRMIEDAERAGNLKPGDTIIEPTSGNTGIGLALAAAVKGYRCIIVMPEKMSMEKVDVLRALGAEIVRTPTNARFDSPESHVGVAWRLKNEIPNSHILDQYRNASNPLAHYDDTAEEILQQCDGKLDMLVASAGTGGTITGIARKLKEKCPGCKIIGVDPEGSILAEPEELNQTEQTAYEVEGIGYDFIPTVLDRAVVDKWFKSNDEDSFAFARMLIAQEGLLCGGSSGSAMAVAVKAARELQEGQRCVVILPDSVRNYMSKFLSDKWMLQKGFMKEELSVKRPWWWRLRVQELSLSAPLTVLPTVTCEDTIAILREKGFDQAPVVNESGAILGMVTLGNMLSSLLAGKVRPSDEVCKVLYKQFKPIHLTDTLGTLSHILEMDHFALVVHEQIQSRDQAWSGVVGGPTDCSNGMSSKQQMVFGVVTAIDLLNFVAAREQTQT
Put plainly: In vitro assay of H2S production in mouse liver homogenates (CBS). Format: biochemical. To be noted: L-PAG 30 μM. On the procedure: as §1, §2

The next series can be described thus: in vivo. On the procedure:
Comparisons of L-PAG plasma levels with (a) dose-response parameters for L-PAG pharmacologic activity and (b) the kinetics of reversal of this pharmacologic activity, support the conclusion that a threshold plasma drug level of approximately 12 to 15 μg/ml is necessary to sustain anti-apnea action. This threshold plasma drug level is consistent with both (a) the minimal anti-apnea activity of the 10 mg/kg dose of L-PAG and (b) the kinetics of the reversal of anti-apnea activity with time seen at L-PAG doses of 30 mg/kg or higher.

In another series the test system is carotid body. Put plainly: Ex vivo carotid body sensory nerve response to hypoxia. To be noted: 30 mg/kg, HO-2 null mice. On the procedure: Sensory nerve activity was recorded from ex vivo carotid bodies harvested from anesthetized mice. Briefly, the carotid sinus nerve was treated with collagenase, and several nerve bundles were isolated. Action potentials from one of the nerve bundles were recorded using a suction electrode (˜20-μm-diameter tip). […] Action potentials of similar height, duration, and shape (“single” unit) were selected using Spike histogram software (LabChart 7 Pro) for analysis of the sensory nerve activity. To obtain a stable baseline sensory nerve activity, carotid bodies were first superfused for 1 hour with normoxia-equilibrated medium. Subsequently, baseline sensory nerve activity under normoxia was recorded for 5 min. Sensory nerve responses to hypoxia were monitored for 3 min. The PO2 in the medium was determined by a blood gas analyzer (ABL 5). Hypoxic response was measured as the difference between the sensory nerve activity under baseline and during hypoxia (Δimp/s).

The subject of series [3] is HO-2 null mice. The following applies: any of the doses tested. On the procedure:
HO-2 null mice were treated with increasing doses of L-PAG via the intraperitoneal route, and breathing was monitored continuously for 6 hours. […] The anti-apneic effects of L-PAG were further analyzed at 30 mg/kg.

SMILES strings stand for the structures. Where two headings read alike, the source gives them in different places.

T1 sequence (Q8VCN5 whole entry): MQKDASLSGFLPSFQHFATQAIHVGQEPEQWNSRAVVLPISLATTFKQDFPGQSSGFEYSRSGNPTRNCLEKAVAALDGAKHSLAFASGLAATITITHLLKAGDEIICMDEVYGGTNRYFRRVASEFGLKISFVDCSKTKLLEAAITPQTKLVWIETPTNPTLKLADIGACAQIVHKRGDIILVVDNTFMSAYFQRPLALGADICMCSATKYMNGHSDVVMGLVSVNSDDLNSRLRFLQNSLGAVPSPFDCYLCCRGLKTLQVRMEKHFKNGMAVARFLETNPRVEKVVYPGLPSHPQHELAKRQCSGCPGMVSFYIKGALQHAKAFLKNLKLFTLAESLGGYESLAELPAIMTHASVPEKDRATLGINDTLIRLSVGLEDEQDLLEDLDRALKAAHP

Broadly, the ED50 is the dose at which the effect has come halfway, by size or by number of responders. For orientation: bioavailability means the share of a dose that reaches the circulation, judged against a reference dose that is usually intravenous. A lower bioavailability goes with little systemic uptake. As to `C#CC[C@H](N)C(=O)O` [L-PAG, L-propargylglycine], the “anti-apnea activity at 10 mg/kg dose” value in the series with HO-2 null mice [1] (10 mg/kg) is listed as “minimal”. Besides, in the series with HO-2 null mice [1] (30 mg/kg intraperitoneal), the hypoapnea index entry is “reduced by L-PAG and this effect persisted even after 24 hours”; the “occurrence of both obstructive and central apnea” value is listed as “markedly reduced”; the “time after administration at which anti-apneic effects were seen” value was ~2 h; the “time after which apnea returned to pre-injection values” amounted to 24 h. Further, the ED50 in the series on HO-2 null mice [1] (ip, intraperitoneal route, breathing monitored 6 hours, HO-2 null mice, read-out: ED50 for reducing number of apneas and restoring stable breathing) came out at 30 mg/kg. For the same compound, the median effective dose (ED50) with HO-2 null mice [1] (systemic administration, HO2-KO mice, FIG. 11, read-out: ED50 for inhibiting SDB (comparative dose-response)) was ~30 mg/kg. In the series with HO-2 null mice [1] (oral 30 mg/kg, compared with intraperitoneal), the “reduction of number of apneas and hypoapnea index after oral administration” value is on record as “equally effective”. In addition, in series [2], the “CSE-derived H2S” value is on record as “inhibited”. Moreover, the “H2S synthesis by cystathionine-β-synthase” value on cystathionine-β-synthase is reported as “unaffected”. For the same compound, in the series “in vivo”, the bioavailability worked out at 100% and the “plasma clearance profiles, oral versus i.p.” value is listed as “essentially identical”. In addition, the “threshold plasma drug level necessary to sustain anti-apnea action” value in “in vivo” (mouse) was in the range of 12 to 15 µg/mL. Moreover, in the series with carotid body, the “carotid body sensitivity to hypoxia” value was “markedly reduced”. Further, in the series on HO-2 null mice [3], the mortality result is listed as “no mortality”.
